SMILES strings stand for the structures. Converted amounts (≈) assume the structure as drawn. Structures can show the parent of a compound that is named as a salt.

The term ED50 denotes the dose at which the effect has come halfway, by size or by number of responders.

The test system of assay [1] is S. aureus Col8A(Meth^S)(lac^-). Kind of assay: In vitro MIC, agar dilution. In kind it is cell-based. The conditions noted are these: for MIC: Staphylococcus aureus, S. aureus Col8A(Meth^S)(lac^-), read-out: minimum inhibitory concentration (MIC). The essentials:
(§1)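 Two-fold dilutions (128 to ≤0.25 μg/mL, in duplicate) were poured into Mueller-Hinton agar. Log-phase broth cultures were spot-inoculated at about 10^4 cfu per spot and incubated 35-36°C for 16-20 hours; the MIC was the lowest concentration inhibiting growth. Col is a high-level PBP2a producer; Col 8A is its isogenic PBP2a-lacking partner.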
(Agar dilution tests growth on a series of plates holding different concentrations.)

Assay [2] deals with E. faecium VanA(Van^R). Kind of assay: In vitro MIC, agar dilution. The format is cell-based. The settings on record: Enterococcus faecium, read-out: minimum inhibitory concentration (MIC). Put shortly:
(§2)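 Strains were spotted at roughly 10^4 cfu onto drug-containing Mueller-Hinton agar. MIC was read as the lowest inhibitory concentration after overnight incubation at 35-36 °C.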

The test system of assay [3] is E. faecalis ATCC 29212. Kind of assay: In vitro MIC, agar dilution. The format is cell-based. The conditions noted are these: Enterococcus faecalis, ATCC29212, read-out: minimum inhibitory concentration (MIC). The essentials:
as §2

For assay [4], the system named is P. aeruginosa ATCC 27853. Kind of assay: In vitro MIC, agar dilution. The conditions noted are these: Pseudomonas aeruginosa, ATCC27853, read-out: minimum inhibitory concentration (MIC). The format is cell-based. Put shortly: as §2
The subject of assay [5] is S. aureus Spain #356(Meth^R). Kind of assay: In vitro MIC, agar dilution. In kind it is cell-based. The conditions noted are these: Staphylococcus aureus, read-out: minimum inhibitory concentration (MIC). The essentials:
as §2

The test system of assay [6] is E. faecium A491(Amp^R). Nature of the assay: In vitro MIC, agar dilution. The format is cell-based. The settings on record: Enterococcus faecium, read-out: minimum inhibitory concentration (MIC). Put shortly:
as §2

Assay [7] has as its system S. aureus 76(Meth^R)(lac^+). Kind of assay: In vitro MIC, agar dilution. The settings on record: Staphylococcus aureus, read-out: minimum inhibitory concentration (MIC). In kind it is cell-based. The essentials:
as §2

In assay [8] the test system is S. aureus ATCC 33593(Meth^R). Nature of the assay: In vitro MIC, agar dilution. The settings on record: Staphylococcus aureus, ATCC33593, read-out: minimum inhibitory concentration (MIC). The format is cell-based. Put shortly:
as §2

The test system of assay [9] is S. haemolyticus 05(Meth^R). Kind of assay: In vitro MIC, agar dilution. In kind it is cell-based. The conditions noted are these: Staphylococcus haemolyticus, read-out: minimum inhibitory concentration (MIC). Put shortly: as §2
For assay [10], the system named is S. aureus PC1(Meth^S)(lac^+). Nature of the assay: In vitro MIC, agar dilution. The conditions noted are these: Staphylococcus aureus, read-out: minimum inhibitory concentration (MIC). In kind it is cell-based. The essentials:
as §2

In assay [11] the test system is S. aureus ATCC 13709(Meth^S). Nature of the assay: In vitro MIC, agar dilution. In kind it is cell-based. The conditions noted are these: Staphylococcus aureus, ATCC13709, S. aureus ATCC 13709(Meth^S); read-out: minimum inhibitory concentration (MIC). Put shortly: as §2
For assay [12], the system named is E. faecalis VanB(Van^R). Nature of the assay: In vitro MIC, agar dilution. The settings on record: Enterococcus faecalis, read-out: minimum inhibitory concentration (MIC). The format is cell-based. Put shortly:
as §2

The test system of assay [13] is E. faecium ATCC 35667. Nature of the assay: In vitro MIC, agar dilution. In kind it is cell-based. The conditions noted are these: Enterococcus faecium, ATCC35667, read-out: minimum inhibitory concentration (MIC). The essentials: as §2
Assay [14] concerns E. coli ATCC 25992. Nature of the assay: In vitro MIC, agar dilution. The settings on record: Escherichia coli, ATCC25992, read-out: minimum inhibitory concentration (MIC). The format is cell-based. Put shortly:
as §2

The test system of assay [15] is S. aureus ATCC 29213. Kind of assay: In vitro MIC, agar dilution. The format is cell-based. The conditions noted are these: Staphylococcus aureus, ATCC29213, read-out: minimum inhibitory concentration (MIC). Put shortly: as §2
Assay [16] concerns S. aureus Col(Meth^R)(lac^-). Nature of the assay: In vitro MIC, agar dilution. The format is cell-based. The settings on record: Staphylococcus aureus, read-out: minimum inhibitory concentration (MIC). Put shortly:
as §1

Assay [17] has as its system S. aureus strain ATCC 13709 (methicillin-susceptible). Kind of assay: Murine model for lethal bacteremic peritonitis. The format is in vivo, female Swiss-Webster mice. The settings on record: Staphylococcus aureus, ATCC13709, SC, 72 h; for responders at 0.3125 mg/kg / responders at 0.625 mg/kg / responders at 2.5 mg/kg / responders at 5 mg/kg: read-out: Survivors; for responders at 1.25 mg/kg: read-out: Survivors (converted); for ED50: two equal doses, IP challenge, read-out: ED50. The essentials: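 Female Swiss-Webster mice were challenged IP with an LD100 inoculum in 7% hog gastric mucin, then given test drug subcutaneously in twofold increments (0.01–512 mg/kg) as two equal doses at challenge and 2 h later, 10 mice per group. Survival was scored at 72 h; PD50 (total mg/kg) was derived by probit.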

For `CO/N=C(\C(=O)N[C@@H]1C(=O)N2C(C(=O)O)=C(COC(C)=O)CS[C@H]12)c1csc(N)n1` [Cefotaxime, cefotaxime, reference compound], in assay [1] (in words), the “responsiveness of S. aureus Col 8A strain” value is given as “highly responsive”.

In the case of `NC(=O)CSCc1cnccc1SC1=C(C(=O)O)N2C(=O)[C@@H](NC(=O)/C(=N\O)c3nc(N)sc3Cl)[C@H]2SC1` [Cmpd 39, (7R)-7-[(Z)-2-(2-amino-5-chlorothiazol-4-yl)-2-(hydroxyimino)acetamido]-3-(3-carboxamidomethylthiomethylpyrid-4-ylthio)-3-cephem-4-carboxylic acid], the MIC in [2] was 2 µg/mL (≈ 3.25 µM); in [3], 0.25 µg/mL (≈ 0.406 µM); in assay [4] it was over 32 µg/mL; in assay [5], 4 µg/mL (≈ 6.49 µM); in assay [6] it was 32 µg/mL (≈ 51.9 µM); in [7], 4 µg/mL (≈ 6.49 µM). The MIC was 4 µg/mL (≈ 6.49 µM) in assay [8]; 8 µg/mL (≈ 13 µM) in assay [9]; 0.5 µg/mL (≈ 0.812 µM) in [10]; 0.25 µg/mL (≈ 0.406 µM) in assay [11]; 0.25 µg/mL (≈ 0.406 µM) in assay [12]; 1 µg/mL (≈ 1.62 µM) in [13]. Besides, the MIC in assay [14] amounted to 8 µg/mL (≈ 13 µM); in [15], 0.25 µg/mL (≈ 0.406 µM); in [16], 2 µg/mL (≈ 3.25 µM). For the same molecule, the responders at 0.3125 mg/kg in assay [17] amounted to 10%. The responders at 0.625 mg/kg in assay [17] was determined as 30%. Also, in assay [17], the responders at 1.25 mg/kg was 60%. For the same molecule, the responders at 2.5 mg/kg in assay [17] was 60%. For the same molecule, in assay [17], the responders at 5 mg/kg came out at 100%. In addition, the ED50 in assay [17] worked out at 1.15 mg/kg.

Consider `NCCCCCOCc1cnccc1SC1=C(C(=O)O)N2C(=O)[C@@H](NC(=O)/C(=N\O)c3nc(N)sc3Cl)[C@H]2SC1` [Cmpd 44, (7R)-7-[(Z)-2-(2-amino-5-chlorothiazol-4-yl)-2-(hydroxyimino)acetamido]-3-(3-(5-aminopentyloxymethyl)pyrid-4-ylthio)-3-cephem-4-carboxylate, trifluoroacetic acid salt], for which the MIC in assay [2] is 2 µg/mL; in [3], 0.13 µg/mL; in [4], over 32 µg/mL; in [5] it was 4 µg/mL; in [6], 16 µg/mL; in assay [7], 4 µg/mL. In addition, the MIC in assay [8] was found to be 4 µg/mL; in [9] it was 8 µg/mL; in assay [10], 2 µg/mL; in assay [11], 2 µg/mL; in [13], 4 µg/mL; in [14], 8 µg/mL. The MIC in assay [15] stood at 0.5 µg/mL; in assay [1], 0.5 µg/mL; in assay [16] it was 4 µg/mL.

As to `NCCS(=O)(=O)Cc1cnccc1SC1=C(C(=O)O)N2C(=O)[C@@H](NC(=O)/C(=N\O)c3nc(N)sc3Cl)[C@H]2SC1` [Cmpd 45, (7R)-7-[(Z)-2-(2-amino-5-chlorothiazol-4-yl)-2-(hydroxyimino)acetamido]-3-(3-aminoethylsulfonylmethylpyrid-4-ylthio)-3-cephem-4-carboxylate, trifluoroacetic acid salt], the MIC in assay [2] is 4 µg/mL; in assay [3] it was 0.13 µg/mL; in [4] it was over 32 µg/mL; in assay [5], 4 µg/mL; in assay [6], 16 µg/mL; in [7], 4 µg/mL. Also, the MIC in assay [8] was found to be 4 µg/mL; in [9], 8 µg/mL; in [10], 2 µg/mL; in assay [11], 2 µg/mL; in assay [13] it was 2 µg/mL; in assay [14], 16 µg/mL. For the same molecule, the MIC stood at 1 µg/mL in assay [15], 1 µg/mL in [1] and 4 µg/mL in assay [16].

For `NCCCCOCc1cnccc1SC1=C(C(=O)O)N2C(=O)[C@@H](NC(=O)/C(=N\O)c3nc(N)sc3Cl)[C@H]2SC1` [Cmpd 46, (7R)-7-[(Z)-2-(2-amino-5-chlorothiazol-4-yl)-2-(hydroxyimino)acetamido]-3-(3-(4-aminobutyloxymethyl)pyrid-4-ylthio)-3-cephem-4-carboxylate, trifluoroacetic acid salt], the MIC in assay [2] is 2 µg/mL; in [3], 0.13 µg/mL; in [4], over 32 µg/mL; in [5], 4 µg/mL; in assay [6] it was 16 µg/mL; in [7], 4 µg/mL. Also, the MIC amounted to 2 µg/mL in assay [8]; 8 µg/mL in assay [9]; 2 µg/mL in assay [10]; 2 µg/mL in [11]; 2 µg/mL in assay [13]; 8 µg/mL in [14]. Moreover, the results for the MIC in assay [15], in [1] and in assay [16] were 1 µg/mL, 0.5 µg/mL and 2 µg/mL, respectively.

For the molecule `Nc1nc(/C(=N/O)C(=O)N[C@@H]2C(=O)N3C(C(=O)O)=C(Sc4ccncc4CSCC(N)CO)CS[C@H]23)c(Cl)s1` (stereo partly drawn) [Cmpd 56, (7R)-7-[(Z)-2-(2-amino-5-chlorothiazol-4-yl)-2-(hydroxyimino)acetamido]-3-[3-(2RS-2-amino-3-hydroxyprop-1-ylthiomethyl)pyrid-4-ylthio]-3-cephem-4-carboxylate, trifluoroacetic acid salt], the MIC in assay [2] is 1 µg/mL; in [3], 0.13 µg/mL; in assay [4], over 32 µg/mL; in assay [5], 2 µg/mL; in [6] it was 8 µg/mL; in assay [7] it was 2 µg/mL. Moreover, the MIC amounted to 2 µg/mL in [8]; 4 µg/mL in assay [9]; 0.5 µg/mL in assay [10]; 0.25 µg/mL in assay [11]; 2 µg/mL in assay [12]; 1 µg/mL in [13]. The MIC in [14] is 8 µg/mL; in [15], 0.5 µg/mL; in assay [16], 2 µg/mL. Moreover, the responders at 0.3125 mg/kg in [17] amounted to 20%. Further, the responders at 0.625 mg/kg in assay [17] came out at 30%. In addition, the responders at 1.25 mg/kg in [17] was 30%. Also, in assay [17], the responders at 2.5 mg/kg was 80%. In addition, the responders at 5 mg/kg in assay [17] turned out to be 80%. For the same molecule, the ED50 in [17] turned out to be 1.23 mg/kg.

`CNCCNCCSCc1cnccc1SC1=C(C(=O)O)N2C(=O)[C@@H](NC(=O)/C(=N\O)c3nc(N)sc3Cl)[C@H]2SC1` [Cmpd 57, (7R)-7-[(Z)-2-(2-amino-5-chlorothiazol-4-yl)-2-(hydroxyimino)acetamido]-3-(3-(N-methylaminoethylaminoethylthiomethyl)pyrid-4-ylthio)-3-cephem-4-carboxylate, trifluoroacetic acid salt]: the MIC in assay [2] was 2 µg/mL; in assay [3], 0.13 µg/mL; in [4], over 32 µg/mL; in [5], 4 µg/mL; in assay [6] it was 16 µg/mL; in [7], 4 µg/mL. Further, the MIC in assay [8] is 4 µg/mL; in assay [9], 8 µg/mL; in assay [10], 1 µg/mL; in assay [11], 0.5 µg/mL; in assay [12] it was 4 µg/mL; in assay [13], 1 µg/mL. Further, the values for the MIC in assay [14], in [15] and in [16] were 4 µg/mL, 1 µg/mL and 4 µg/mL, respectively. The responders at 0.3125 mg/kg in [17] is 40%. For the same molecule, the responders at 0.625 mg/kg in assay [17] worked out at 40%. Further, the responders at 1.25 mg/kg in assay [17] is 40%. The responders at 2.5 mg/kg in [17] stood at 50%. In addition, the responders at 5 mg/kg in assay [17] was found to be 90%. Further, the ED50 in assay [17] was determined as 1.08 mg/kg.

The values are drawn from patent US6087355A, “Cephalosporin antibiotics” (Microcide Pharmaceuticals, Inc., priority 1996, dated 2000).
